Common to all, as to type: cell-based, human
The subject of assay [1] is wild-type HEK293 cells. The experiment in a line: Mito DNADX mtDNA damage and mtDNA copy number in wild-type HEK293 cells. Particulars: 10 nM-1 μM, 2 h. The protocol:
(§1) Cells were plated at a density of 0.3 × 10^6 cells in a 6-well dish and treated at ~40–50% confluency. At the time of harvest, cells were collected and either protein collected or DNA extracted as described below.
Following this treatment, “Post-treatment recovery 0 h” samples were collected immediately, or vehicle or MLi-2-containing treatment medium was washed out and replaced with fresh medium and incubated for 2 additional hours and then collected as “Post-treatment recovery 2 h” samples. Isolation, quantitation, and mtDNA damage was performed as described below. […]
Cells were collected and the nuclei and mitochondria were isolated as previously described. […] DNA was eluted with EDTA-free buffer, and quality was assessed using a Spectradrop microvolume microplate (Molecular Devices). Double-stranded DNA was quantified using Quant-iT Picogreen dsDNA assay (Thermo Fisher) as previously described.
DNA damage in the mitochondrial genome was measured utilizing Mito DNADX, an assay that we recently developed and described, currently the most robust way of measuring damage in mtDNA[39],[82]. The Mito DNADX assay combines optimized polymerase chain reaction (PCR) parameters using a high-fidelity DNA polymerase and a fluorescent dye that binds to double-stranded DNA that permits the real-time quantification of DNA damage in distinct loci in a 96-well platform. […]

Assay [2] relates to wild-type HEK293 cells. The experiment in a line: Mitophagy (Mtphagy dye / Lyso dye live cell imaging) in wild-type HEK293 cells. Particulars: 100 nM 2 h pre-treatment; for basal levels of mitophagy: Mitophagy dye intensity or co-localization; for FCCP-stimulated mitophagy: then 20 μM FCCP 3 h. The protocol: (§2) Thirty-five mm cell culture dishes (Cellvis, D35-20-1.5-N) were coated with poly-D-lysine (Sigma-Aldrich, P7280-5MG) for 5 min, washed with cell culture grade water (Sigma-Aldrich, W3500), and allowed to dry for at least 1 h before plating. LRRK2^G2019S/G2019S KI HEK293 and wild-type cells were passaged as described above and plated at 300,000 cells per well on poly-D-lysine-coated dishes. […] Following this, cells were washed three times with serum-free medium, and a working solution of Mtphagy dye (Dojindo, MD-01) was prepared in serum-free medium according to manufacturer protocols. Cultures were incubated with Mtphagy dye for 30 min, followed by three washes with serum-free medium. Complete medium was used to prepare a 20 µM FCCP (Abcam, ab120081) or DMSO control treatment solution, which was used to treat cells for 3 h. Following treatment, cells were then washed 3 times with serum-free medium, and a working solution of Lyso dye (Dojindo, MD-01) was prepared in serum-free medium and used to treat cells for 30 min. Complete medium lacking phenol red was prepared for use in confocal live cell imaging by combining phenol red-free DMEM/F-12 (Fisher Scientific, 21-041-025), FBS (VWR, 97068-085), and penicillin-streptomycin (VWR, 45000-652). Following Lyso dye treatment, cultures were washed three times with phenol red-free medium, followed by adding fresh phenol red-free medium to cell culture dishes. MitoBright LT Deep Red (Dojindo, MT12-12) was diluted in growth medium to prepare a 0.1 μmol/l solution and was used to treat cells for 15 min for total mitochondrial staining. Live cell imaging (5% CO2, 37 °C) was performed using a Zeiss LSM 880 Confocal Laser Scanning Microscope with Zen Black software. On average, ~70 cells were analyzed for each condition per each experimental replicate.
(§3) Following imaging, files were processed using Zen Blue software, and TIFF files of each channel were obtained for analysis. ImageJ was used to obtain readouts for image analysis. All images were converted to 8-bit format. For each respective image, the Lyso dye channel was used to create a mask delineating each lysosomal focus as a region of interest (ROI). Thresholding parameters were adjusted between biological replicates as required to ensure that the Lyso dye ROI encompassed all lysosome foci appropriately, and this was used to create a mask. This was then applied to the corresponding Mtphagy dye channel image, allowing collection of Mtphgy fluorescence intensity readouts for each lysosomal focus. Outliers were removed using Prism software (GraphPad) with the coefficient of removal set to 0.2%. Data was thresholded to exclude lysosomes not containing mitochondria by excluding fluorescence values with intensities equal to or below background levels. The number of ROIs remaining after thresholding was used to quantify lysosomes containing fluorescing mitochondria (mitolysosomes). Fluorescence intensity values for all mitolysosomes per condition per biological replicate were averaged to obtain a value of mitophagy fluorescence intensity per mitolysosome. For each replicate, all values of average mitolysosome fluorescence intensity were normalized to wild-type (vehicle treated) levels for the given replicate.

Assay [3] has as its system LRRK2^G2019S/G2019S KI HEK293 cells. The experiment in a line: Mito DNADX mtDNA damage and mtDNA copy number in LRRK2 G2019S/G2019S KI HEK293 cells. Particulars: for mtDNA copy number / mtDNA damage: LRRK2 G2019S/G2019S KI cells, 2 h; for mtDNA copy number: 10 nM-1 μM. The protocol:
as §1
Following this treatment, “Post-treatment recovery 0 h” samples were collected immediately, or vehicle or MLi-2-containing treatment medium was washed out and replaced with fresh medium and incubated for 2 additional hours and then collected as “Post-treatment recovery 2 h” samples. Isolation, quantitation, and mtDNA damage was performed as described below.
(§4) The tool compound EB-42168 was discovered as part of a small molecule discovery program aimed at identifying LRRK2 kinase inhibitors that are selective for the pathogenic G2019S LRRK2 variant. […] MLi‐2 inhibits WT LRRK2 ~1000‐fold more than EB‐42168[20].
(§5) Cells were collected and the nuclei and mitochondria were isolated as previously described. DNA was extracted from LRRK2-WT and G2019S-LRRK2 cells, and wild-type and LRRK2^G2019S/G2019S KI cells using QuickGene DNA Whole Blood Kit L (Autogen, fk-dbl). PD patient LRRK2 G2019S and healthy subject control-derived LCL DNA was extracted using the QuickGene DNA Tissue Kit L (Autogen, fk-dtl), utilizing a semi-automated system (Autogen, QuickGene-610L). For the Autogen system, the pellet was resuspended in 2 ml of 1X PBS, and the standard manufacturer’s protocol was conducted as if the cell suspension was whole blood. DNA was eluted with EDTA-free buffer, and quality was assessed using a Spectradrop microvolume microplate (Molecular Devices). Double-stranded DNA was quantified using Quant-iT Picogreen dsDNA assay (Thermo Fisher) as previously described.
(§6) DNA damage in the mitochondrial genome was measured utilizing Mito DNADX, an assay that we recently developed and described, currently the most robust way of measuring damage in mtDNA[39],[82]. The Mito DNADX assay combines optimized polymerase chain reaction (PCR) parameters using a high-fidelity DNA polymerase and a fluorescent dye that binds to double-stranded DNA that permits the real-time quantification of DNA damage in distinct loci in a 96-well platform. The premise of the Mito DNADX assay involves amplification of a specific mitochondrial PCR fragment in which less PCR product will be amplified when mtDNA damage or lesions block the ability of the DNA polymerase to replicate. As such, mtDNA damage or mtDNA repair intermediates that slow down or impair DNA polymerase progression will be detected. Therefore, equal amounts of sample DNA amplified under identical conditions can be directly compared across conditions to determine the mtDNA lesion frequency. Mitochondrial DNA lesion frequency was performed as previously described. Briefly, 15 ng of DNA was used to amplify long or short amplicons of the mitochondrial genome (as determined by primer sets). The amount of amplification is directly proportional to the number of undamaged DNA templates. Average lesion frequency is calculated as described. Results are presented with the values in experimental samples relative to control samples (normalized to 1 lesion per 10 kb). PCR reactions included KAPA Long Range HotStart DNA Polymerase (KAPA Biosystems)[49]. Each biological DNA sample was analyzed in technical triplicate. Limitations of the Mito DNADX assay have been recently discussed.

Assay [4] deals with WT-LRRK2 expressing HEK293 cells. The assay is described as follows: Mito DNADX mtDNA damage and mtDNA copy number in WT-LRRK2 overexpressing HEK293 cells. Particulars: 10 nM-1 μM, 2 h. On the procedure: as §1, §4, §5
as §6, with “Results are presented with the values in experimental samples relative to control samples (normalized to 1 lesion per 10 kb). PCR reactions included KAPA Long Range HotStart DNA Polymerase (KAPA Biosystems)[49].” left out, “Limitations of the Mito DNADX assay have been recently discussed.” left out

Assay [5] deals with G2019S-LRRK2 expressing HEK293 cells. The experiment in a line: Mito DNADX mtDNA damage and mtDNA copy number in G2019S-LRRK2 overexpressing HEK293 cells. Particulars: 10 nM-1 μM, 2 h. On the procedure:
as §1, §4, §5, §6

Assay [6] deals with LRRK2^G2019S/G2019S KI HEK293 cells. The assay is described as follows: Mitophagy (Mtphagy dye / Lyso dye live cell imaging) in LRRK2 G2019S/G2019S KI HEK293 cells. Particulars: 100 nM 2 h pre-treatment; for basal levels of mitophagy: Mitophagy dye intensity or co-localization; for FCCP-stimulated mitophagy defect: then 20 μM FCCP 3 h. On the procedure: as §2, §3

Molecules are shown by their SMILES. Entries after “also recorded” stand apart in the source; their conditions may differ. Where only a bound is given, the exact number is not on record here.

For the compound `CC1=C(C(=O)Nc2ccc3[nH]nc(-c4ccnc(N5CCOCC5)c4)c3c2)C(C)(C)n2nnnc2N1C` [EB-42168], the mtDNA copy number result in the assay on wild-type HEK293 cells [1] is recorded as “no effect”; in assay [3] it was “reduced”; in assay [3] (listed as EB-42618), “modestly decreased”; in assay [4], “not different; also recorded: did not change”; in assay [5], “not different; also recorded: did not change”. Also, the “basal levels of mitophagy” value (in the assay on wild-type HEK293 cells [2]; in assay [6]) was “did not impact” each time. In the assay with wild-type HEK293 cells [2], the FCCP-stimulated mitophagy result was “blocked”. In addition, the mtDNA damage result in assay [3] (all concentrations tested (10 nM-1 μM)) is on record as “reversed to wild-type levels”; in assay [4] it was “No effect”; in assay [5], “normalizing damage to WT-LRRK2 control levels (or lower)”; in assay [5] (listed as EB-42618), “abrogated”. Besides, in assay [6], the FCCP-stimulated mitophagy defect entry is “failed to rescue”.
On to `C[C@@H]1CN(c2cc(-c3n[nH]c4ccc(OC5(C)CC5)cc34)ncn2)C[C@H](C)O1` [MLi-2, reference compound], for which the mtDNA copy number entry in the assay with wild-type HEK293 cells [1] is “did not change”; in assay [3], “did not change; also recorded: No effect; also recorded: No changes”; in assay [4] it was “no effect; also recorded: unaltered”; in assay [5], “no effect; also recorded: unaltered”. The “basal levels of mitophagy” value (in the assay on wild-type HEK293 cells [2]; in assay [6]) was “did not impact” each time. Besides, the FCCP-stimulated mitophagy result in the assay on wild-type HEK293 cells [2] was “blocked”. Further, the “mtDNA copy number after inhibitor washout” value in assay [3] (100 nM for 2 h, washout, 2 h recovery) is “no changes”. In addition, the “mtDNA damage phenotype after inhibitor washout” value in assay [3] (KI cells, 100 nM for 2 h, washout, 2 h recovery in media) is “fully re-established”. Further, the “time to re-establishment of mtDNA damage phenotype after washout” value in assay [3] (KI cells, 100 nM for 2 h then washout) is listed as not above 2 h. Also, the mtDNA damage entry is on record as “reversed mtDNA damage levels to wild-type levels” in assay [3] (100 nM), “trend toward an increase in mtDNA damage” in assay [4] and “restored mtDNA damage to WT-LRRK2 control levels” in assay [5]. Moreover, the FCCP-stimulated mitophagy defect result in assay [6] is reported as “failed to rescue”.
